Consider 9 compounds from patent US20220249441A1, “Homodimeric Tobramycin Adjuvant Repurposes Novobiocin as an Effective Antibacterial Agent Against Gram-Negative Bacteria” (priority 2019, published 2022).

≈ marks a conversion by molar mass, not a printed value.

One test deals with P. aeruginosa. Briefly: Checkerboard assay (antibiotic + adjuvant combination MIC). It counts as cell-based, Pseudomonas aeruginosa. Particulars: for MIC Alone / potentiation of novobiocin: P. aeruginosa PAO1; for MIC Alone: β-lactam antibiotic alone. On the procedure:
(§1) Antimicrobial Susceptibility Assay. The in vitro antimicrobial activity of all compounds/antibiotics against a panel of bacteria was evaluated by microbroth dilution method in accordance with the Clinical and Laboratory Standards Institute (CLSI) guidelines (using ATCC strains as quality control strains) (54). Overnight grown bacterial cultures were diluted in saline to achieve a 0.5 McFarland turbidity, followed by 1:50 dilution in Mueller-Hinton broth (MHB) for inoculation to a final concentration of approximately 5×10^5 CFU/mL. […] The lowest concentration that prevented the visible growth of bacteria was defined as the MIC for each antimicrobial agent. The broth with or without bacterial cells was used as positive or negative control, respectively.
Checkerboard Assay. Combination studies with different antibiotics were performed in 96-well plates as previously described (19). Briefly, the antibiotic of interest was serially diluted in MHB along the abscissa while the adjuvant (tobramycin homodimer) was serially diluted in MHB along the ordinate. This creates a 10×7 matrices wherein each well consists of a combination of different antibiotic and adjuvant concentrations. Overnight grown bacterial cultures were diluted in saline to achieve a 0.5 McFarland turbidity, followed by 1:50 dilution in Mueller-Hinton broth (MHB) for inoculation to a final concentration of approximately 5×10^5 CFU/mL. […] MIC was recorded as wells with the lowest concentration of drugs with no bacterial growth. The fractional inhibitory concentration (FIC) for each antibiotic was calculated by dividing the MIC of the antibiotic in the presence of adjuvant by the MIC of the antibiotic alone. Similarly, the FIC of adjuvant was calculated by dividing the MIC of the adjuvant in the presence of antibiotic by the MIC of the adjuvant alone. FIC index is the sum of both FICs. FIC indices of ≤0.5 were deemed synergistic; >0.5-4, no interaction; and >4, antagonistic.

Test [1] concerns A. baumannii ATCC 17978 and resistant mutants. Description: microbe, parasite or virus in culture. It counts as cell-based, Acinetobacter baumannii. Particulars: Acinetobacter baumannii. On the procedure: as §1
Development of Resistance Study. […] Tobramycin and colistin were included as controls. At 24-hour intervals, the cultures were assessed for growth. […] This serial passaging was repeated for 8 days.

[2] abbreviates: ATCC17978, 18 h, Mutant C (seven serial passages, sub-MICs novobiocin + 7.1 μM compound 1).
Setting [3] is: ATCC17978, Mutant A (seven serial passages, sub-MICs novobiocin).
Setting [4] is: ATCC17978, Mutant B (seven serial passages, sub-MICs colistin).
The mark [5] stands for this setting: ATCC17978, Wild-type A. baumannii ATCC 17978.

With `C[C@H]1[C@H](NC(=O)/C(=N\OC(C)(C)C(=O)O)c2csc(N)n2)C(=O)N1S(=O)(=O)O` [Aztreonam, reference compound], in the test with P. aeruginosa, the MIC Alone stood at 4 µg/mL. The MIC of ATM alone with P. aeruginosa (PA 259-96918) worked out at 32 µg/mL; with P. aeruginosa (PA 260-97103) it was 64 µg/mL; with P. aeruginosa (PA 262-101856), 32 µg/mL; in the test with P. aeruginosa (PA 264-104354), 32 µg/mL; with P. aeruginosa (PA 86052), 64 µg/mL; in the test on P. aeruginosa (PA 88949), 32 µg/mL. Further, the MIC of ATM alone is 16 µg/mL in the test on P. aeruginosa (PA 91433); 16 µg/mL in the test with P. aeruginosa (PA 100036); 32 µg/mL in the test with P. aeruginosa (PA 101243); 16 µg/mL with P. aeruginosa (PA 101885); 64 µg/mL in the test with P. aeruginosa (PA 107092); 32 µg/mL in the test on P. aeruginosa (PA 108590). The results for the MIC of ATM alone in the test on P. aeruginosa (PA 109084), with P. aeruginosa (PA 114228) and in the test with P. aeruginosa (PAO1) were 64 µg/mL, 32 µg/mL and 4 µg/mL, respectively.
As for `O=C(N[C@H](CO)[C@H](O)c1ccc([N+](=O)[O-])cc1)C(Cl)Cl` [Chloramphenicol], the MIC in test [1] (setting [2]) came out at 64 µg/mL; in test [1] (setting [3]), 32 µg/mL (≈ 99 µM); in test [1] (setting [4]), 8 µg/mL (≈ 24.8 µM); in test [1] (setting [5]) it was 64 µg/mL (≈ 198 µM).
Take `C#CCCCCO[C@@H]1[C@@H](O[C@H]2O[C@H](CO)[C@@H](O)[C@H](N)[C@H]2O)[C@H](N)C[C@H](N)[C@H]1O[C@H]1O[C@H](CN)[C@@H](O)C[C@H]1N.O=C(O)C(F)(F)F.O=C(O)C(F)(F)F.O=C(O)C(F)(F)F.O=C(O)C(F)(F)F.O=C(O)C(F)(F)F` [Compound 4, 5-O-(Hexyne)-Tobramycin]: in the test with P. aeruginosa, the potentiation of novobiocin entry is “did not potentiate”.
Same read-out and setting: the entry for `[N-]=[N+]=NCCCCO[C@@H]1[C@@H](O[C@H]2O[C@H](CO)[C@@H](O)[C@H](N)[C@H]2O)[C@H](N)C[C@H](N)[C@H]1O[C@H]1O[C@H](CN)[C@@H](O)C[C@H]1N` [Compound 5, 5-O-(4-Azidobutyl)-Tobramycin] is “did not potentiate”; for `CC(C)(C)OC(=O)NC[C@H]1O[C@H](O[C@H]2[C@H](OCCCCc3cn(CCCCO[C@@H]4[C@@H](O[C@H]5O[C@H](CO)[C@@H](O)[C@H](NC(=O)OC(C)(C)C)[C@H]5O)[C@H](NC(=O)OC(C)(C)C)C[C@H](NC(=O)OC(C)(C)C)[C@H]4O[C@H]4O[C@H](CNC(=O)OC(C)(C)C)[C@@H](O)C[C@H]4NC(=O)OC(C)(C)C)nn3)[C@@H](O[C@H]3O[C@H](CO)[C@@H](O)[C@H](NC(=O)OC(C)(C)C)[C@H]3O)[C@H](NC(=O)OC(C)(C)C)C[C@@H]2NC(=O)OC(C)(C)C)[C@H](NC(=O)OC(C)(C)C)C[C@@H]1O` [Compound 12a] it is “did not potentiate”.
Consider `C[C@@H](O)[C@H]1C(=O)N2C(C(=O)O)=C(SCCN=CN)C[C@H]12` [Imipenem, reference compound], for which, in the test with P. aeruginosa, the MIC Alone was determined as 4 µg/mL. Further, the MIC of IPM alone worked out at 64 µg/mL in the test with P. aeruginosa (PA 259-96918); 16 µg/mL in the test with P. aeruginosa (PA 260-97103); 32 µg/mL in the test with P. aeruginosa (PA 262-101856); 16 µg/mL in the test on P. aeruginosa (PA 264-104354); 32 µg/mL in the test with P. aeruginosa (PA 86052); 64 µg/mL in the test with P. aeruginosa (PA 88949). For the same compound, the MIC of IPM alone in the test on P. aeruginosa (PA 91433) worked out at 8 µg/mL; in the test on P. aeruginosa (PA 100036), 8 µg/mL; with P. aeruginosa (PA 101243) it was 8 µg/mL; in the test on P. aeruginosa (PA 101885), 4 µg/mL; with P. aeruginosa (PA 107092), 64 µg/mL; in the test with P. aeruginosa (PA 108590) it was 16 µg/mL. Moreover, the MIC of IPM alone with P. aeruginosa (PA 109084) stood at 16 µg/mL; in the test with P. aeruginosa (PA 114228) it was 8 µg/mL; with P. aeruginosa (PAO1), 4 µg/mL; in the test with P. aeruginosa (PAO200 (efflux-deficient)) it was 4 µg/mL; with P. aeruginosa (PAO750 (efflux-deficient)), 4 µg/mL.
As for `CN(C)c1ccc(O)c2c1C[C@H]1C[C@H]3[C@H](N(C)C)C(O)=C(C(N)=O)C(=O)[C@@]3(O)C(O)=C1C2=O` [Minocycline], the MIC was 0.125 µg/mL in test [1] (setting [2]), 0.5 µg/mL (≈ 1.09 µM) in test [1] (setting [3]), under 0.031 µg/mL in test [1] (setting [4]) and 0.125 µg/mL (≈ 0.273 µM) in test [1] (setting [5]).
On to `CCN1CCN(C(=O)N[C@@H](C(=O)N[C@@H]2C(=O)N3[C@@H]2SC(C)(C)[C@@H]3C(=O)O)c2ccccc2)C(=O)C1=O` [Piperacillin, reference compound], for which the MIC Alone in the test with P. aeruginosa worked out at 8 µg/mL.
Regarding `CO[C@H]1/C=C/O[C@@]2(C)Oc3c(C)c(O)c4c(O)c(c(/C=N/N5CCN(C)CC5)c(O)c4c3C2=O)NC(=O)/C(C)=C\C=C\[C@H](C)[C@H](O)[C@@H](C)[C@@H](O)[C@@H](C)[C@H](OC(C)=O)[C@@H]1C` [Rifampicin], the MIC is 2 µg/mL in test [1] (setting [2]), 2 µg/mL (≈ 2.43 µM) in test [1] (setting [3]), under 0.031 µg/mL in test [1] (setting [4]) and 2 µg/mL (≈ 2.43 µM) in test [1] (setting [5]).
